Read-outs that look alike come from different tables or passages of the source.
Experiments:
[1] = test system: U937; experiment: Off-target effect (cell based assay), reported with assay 2; conditions: Homo sapiens
Experimental: (§1) Assay 2: Screening Compounds for Inhibition of TSQ Induced Necroptosis, 96 Well Plate Format.
(§2) Cell Line ID: U937 human histiocytic leukemia cell line.
(§3) Cell Concentration (cells/well): Final cell density is 5000 cells per well.
(§4) Cell growth medium: HT-RPMI+7.4% FBS. Cells are cultured in Corning 150 cm^2 tissue culture flasks with vented caps at 37° C./5% CO2.
(§5) Incubation time (hours): 48 hours following addition of compounds and death stimuli
(§6) Compound concentration: 100 nM
(§7) DMSO final concentration (% v/v): 0.3%.
(§8) Data is loaded into Abase and normalised. 10 points titration curve are fitted with the 4 parameter logistic nonlinear regression model and the IC50 reported reflects the inflection point of the curve for curve fitting.

[2] = test system: U937 human histiocytic leukemia cell line; experiment: Assay 1: inhibition of TSQ induced necroptosis, 96 well plate format; type: cell-based
Experimental: For in vitro analysis, the necroptosis inhibition may be determined by assays used to measure TSQ-induced necroptosis, as described in the biological tests defined herein.
(§9) Assay 1: Screening Compounds for Inhibition of TSQ Induced Necroptosis, 96 Well Plate Format.
(§10) Cell Line ID: […] human histiocytic leukemia cell line.
(§11) Cell Concentration (cells/well): 35,000 per well in 120 μL of media, counted and plated immediately prior to addition of inhibitor and death stimuli. Final well volume of 150 μL after addition of compounds and death stimuli
(§12) Cell growth medium: HTRPMI (WEHI Media kitchen, contains L-Glutamine and penicillin, streptomycin)—supplemented with 7.4% v/v FCS (Gibco, Precision Plus. Lot #1221437)
as §5
(§13) Compound Concentrations—Log Titrations:
(§14) DMSO final concentration (% v/v): 1.2% in 10 μM well to 0.2% in the control well.
(§15) Compounds that are in the Death Stimulation Cocktail and Their Final Concentrations:
(§16) hTNF-Fc (100 ng/ml)—produced by standard procedures as shown in Bossen et al., J Biol Chem, 2006, 281(20), 13964-13971.
(§17) Compound A (500 nM)—Smac mimetic, Tetralogic
(§18) Q-VD-OPh (10 μM)—MP Biomedicals
(§19) Cells treated with PI staining (1 μg/ml) and analysed by flow cytometry

[3] = test system: U937 human histiocytic leukemia cell line; experiment: Off-target effect (cell based assay), reported with assay 1
Experimental: as §9, §10, §11, §12, §5, §13, §14, §19

[4] = test system: U937 human histiocytic leukemia cell line; experiment: Assay 2: inhibition of TSQ induced necroptosis, 96 well plate format; conditions: read-out: Inhibition of TSQ-induced necroptosis (cell based assay) IC50 (U937, TSQ nM)
Experimental: as §1, §2, §3, §4, §5, §6, §7, §15, §16, §17, §18, §8

[5] = U-937, Table 2, assay 2, U937, read-out: Off-target effect (cell based assay) IC50 (U937)
[6] = U-937, Table 1, assay 1, hTNF-Fc 100 ng/ml, Compound A 500 nM, Q-VD-OPh 10 μM, 48 hours, PI staining, flow cytometry, read-out: Inhibition of TSQ-induced necroptosis (cell based assay) IC50
[7] = U-937, Table 1, assay 1, read-out: Off-target effect (cell based assay) IC50
[8] = U-937, Table 2, assay 2, U937, 5000 cells per well, hTNF-Fc 100 ng/ml, Compound A 500 nM, Q-VD-OPh 10 μM, 48 hours
[9] = U-937, read-out: Off-target effect (cell based assay) IC50 (U937, μM)
[10] = U-937, comparison tables of the description, values as in Table 1 (assay 1), read-out: IC50 (nM) Necroptosis inhibition
[11] = U-937, comparison tables of the description, values as in Table 1 (assay 1), read-out: IC50 (nM) Off-Target Effect

SMILES	IC50 [1, 5] [µM]	IC50 [2, 6] [nM]	IC50 [3, 7] [nM]	IC50 [4, 8] [nM]	also measured
Cc1ccc(Nc2nccc(N(C)c3ccc(NC(=O)Nc4cc(F)cc(C(F)(F)F)c4)cc3)n2)cc1N1CCNC1=O [Compound 34, 1-(3-fluoro-5-(trifluoromethyl)phenyl)-3-(4-(methyl(2-((4-methyl-3-(2-oxoimidazolidin-1-yl)phenyl)amino)pyrimidin-4-yl)amino)phenyl)urea]	0.513	23	2420	29	
CNC(=O)c1cc(Nc2nccc(N(C)c3ccc(NC(=O)Nc4cc(C(F)(F)F)cc(C(F)(F)F)c4)cc3)n2)ccc1C [Compound 37, 5-((4-((4-(3-(3,5-bis(trifluoromethyl)phenyl)ureido)phenyl)(methyl)amino)pyrimidin-2-yl)amino)-N,2-dimethylbenzamide]	1.09			71	
Cc1ccc(Nc2nccc(N(C)c3ccc(NC(=O)Nc4cc(F)cc(C(F)(F)F)c4)cc3)n2)cc1C(=O)OCCO [Compound 36, 2-hydroxyethyl 5-((4-((4-(3-(3-fluoro-5-(trifluoromethyl)phenyl)ureido)phenyl)(methyl)amino)pyrimidin-2-yl)amino)-2-methylbenzoate]	2.42			23	
CN(c1ccc(NC(=O)Nc2ccc(OC(F)(F)F)cc2)cc1)c1ccnc(Nc2cccc(S(N)(=O)=O)c2)n1 [drawing 174, reference compound]					IC50 [1, 9]: 1.5 µM; IC50 ([4]; U-937, 48 h): 75 nM
CNC(=O)c1cc(Nc2nccc(N(C)c3ccc(NC(=O)Nc4cccc(OC(F)(F)F)c4)cc3)n2)ccc1C [Compound 39, N,2-dimethyl-5-((4-(methyl(4-(3-(3-(trifluoromethoxy)phenyl)ureido)phenyl)amino)pyrimidin-2-yl)amino)benzamide]	0.419			3.9	
CN(c1ccc(NC(=O)Nc2ccc(OC(F)(F)F)cc2)cc1)c1ccnc(Nc2cccc(N3CC4(CCOCC4)CC3=O)c2)n1 [Compound 40, 1-(4-(methyl(2-((3-(3-oxo-8-oxa-2-azaspiro[4.5]decan-2-yl)phenyl)amino)pyrimidin-4-yl)amino)phenyl)-3-(4-(trifluoromethoxy)phenyl)urea]	> 10			7.5	
CNC(=O)c1cc(Nc2nccc(N(C)c3ccc(NC(=O)Nc4cccc(CC(F)(F)F)c4)cc3)n2)ccc1C [Compound 38, N,2-dimethyl-5-((4-(methyl(4-(3-(3-(2,2,2-trifluoroethyl)phenyl)ureido)phenyl)amino)pyrimidin-2-yl)amino)benzamide]	0.231			2.3	
CNC(=O)c1cc(Nc2ncc(C)c(N(C)c3ccc(NC(=O)Nc4ccc(OC(F)(F)F)cc4)cc3)n2)ccc1C [Compound 6, N,2-dimethyl-5-((5-methyl-4-(methyl(4-(3-(4-(trifluoromethoxy)phenyl)ureido)phenyl)amino)pyrimidin-2-yl)amino)benzamide]					IC50 [1, 9]: > 1000 µM; IC50 ([4]; U-937, 48 h): 29 nM
CNC(=O)c1cc(Nc2nccc(N(C)c3ccc(NC(=O)Nc4cc(C#N)cc(C(F)(F)F)c4)cc3)n2)ccc1C [Compound 42]	> 10			49	
CNC(=O)c1cc(Nc2nccc(N(C)c3ccc(NC(=O)Nc4cc(F)cc(C(F)(F)F)c4)cc3)n2)ccc1CN1CCN(C)CC1 [Compound 35, 5-((4-((4-(3-(3-fluoro-5-(trifluoromethyl)phenyl)ureido)phenyl)(methyl)amino)pyrimidin-2-yl)amino)-N-methyl-2-((4-methylpiperazin-1-yl)methyl)benzamide]	0.841			45	
Cc1ccc(Nc2nccc(N(C)c3ccc(NC(=O)Nc4ccc(OC(F)(F)F)cc4)cc3)n2)cc1N1CC2(CCOCC2)CC1=O [Compound 41, 1-(4-(methyl(2-((4-methyl-3-(3-oxo-8-oxa-2-azaspiro[4.5]decan-2-yl)phenyl)amino)pyrimidin-4-yl)amino)phenyl)-3-(4-(trifluoromethoxy)phenyl)urea]	> 10			14	
Cc1ccc(Nc2nccc(N(C)c3ccc(NC(=O)Nc4ccc(OC(F)(F)F)cc4)cc3)n2)cc1CN(C)C [Compound 1, 1-(4-((2-((3-((dimethylamino)methyl)-4-methylphenyl)amino)pyrimidin-4-yl)(methyl)amino)phenyl)-3-(4-(trifluoromethoxy)phenyl)urea]		53	4680		
Cc1ccc(Nc2nccc(N(C)c3ccc(NC(=O)Nc4ccc(OC(F)(F)F)cc4)cc3)n2)cc1N1CCCC1=O [Compound 7]		51.8	> 10000		
Cc1ccc(Nc2ncc(F)c(N(C)c3ccc(NC(=O)Nc4cc(F)cc(C(F)(F)F)c4)cc3)n2)cc1N1CCCC1=O [Compound 24, 1-(4-((5-fluoro-2-((4-methyl-3-(2-oxopyrrolidin-1-yl)phenyl)amino)pyrimidin-4-yl)(methyl)amino)phenyl)-3-(3-fluoro-5-(trifluoromethyl)phenyl)urea]		8.9	1240		
Cc1ccc(Nc2nccc(N(C)c3ccc(NC(=O)Nc4ccc(OC(F)(F)F)cc4)cc3)n2)cc1S(N)(=O)=O [Compound 21 from AU 2014903569, reference compound]					IC50 [2, 10]: 72.7 nM; IC50 [3, 11]: 3600 nM
CN(c1ccc(NC(=O)Nc2ccc(OC(F)(F)F)cc2)cc1)c1ccnc(Nc2cccc(N3CCCC3=O)c2)n1 [Compound 8, 1-(4-(Methyl(2-((3-(2-oxopyrrolidin-1-yl)phenyl)amino)pyrimidin-4-yl)amino)phenyl)-3-(4-(trifluoromethoxy)phenyl)urea]		75.4	> 10000		IC50 [2, 10]: 75.4 nM; IC50 [3, 11]: > 10000 nM
CNC(=O)c1cc(Nc2ncc(F)c(N(C)c3ccc(NC(=O)Nc4cc(C(F)(F)F)ccc4F)cc3)n2)ccc1C [Compound 15, 5-(5-fluoro-4-((4-(3-(2-fluoro-5-(trifluoromethyl)phenyl)ureido)phenyl)(methyl)amino)pyrimidin-2-ylamino)-N,2-dimethylbenzamide]		< 1	103		
CNC(=O)c1cc(Nc2nccc(N(C)c3ccc(NC(=O)Nc4cc(F)cc(C(F)(F)F)c4)cc3)n2)ccc1N1CCOCC1 [Compound 27, 5-((4-((4-(3-(3-fluoro-5-(trifluoromethyl)phenyl)ureido)phenyl)(methyl)amino)pyrimidin-2-yl)amino)-N-methyl-2-morpholinobenzamide]		325	2700		
CN(c1ccc(NC(=O)Nc2cc(F)cc(C(F)(F)F)c2)cc1)c1ccnc(Nc2cccc(S(N)(=O)=O)c2)n1 [Compound 10, 3-((4-((4-(3-(3-fluoro-5-(trifluoromethyl)phenyl)ureido)phenyl)(methyl)amino)pyrimidin-2-yl)amino)benzenesulfonamide]		< 1	506		IC50 [2, 10]: < 1 nM; IC50 [3, 11]: 506 nM

From patent US20180057465A1, “Inhibitors of Necroptosis” (Catalyst Therapeutics Pty Ltd, priority 2015, published 2018)
